Results on six compounds are retold here after patent US10588935B2, “FC receptor (FcRn) binding peptides and uses thereof” (THE BRIGHAM AND WOMEN'S HOSPITAL, INC., priority 2013, dated 2020).

This experiment concerns the target T1, soluble human FcRn (Homo sapiens, UniProt P55899).
T1 construct: Soluble human FcRn was expressed and purified by Biogen-Idec as previously described (29)
Put plainly: SPR (Biacore) affinity of peptides for immobilized soluble human FcRn. It counts as binding. The method, then:
SPR analyses were conducted using a Biacore 3000 or T100 instrument. Research-grade CM5 sensor chips and all coupling reagents for immobilization were purchased from Biacore. All proteins were cross-linked to the dextran surface of a CM5 sensor chip by standard amine coupling chemistry as recommended by Biacore. […] Binding experiments were performed at pH 6.0 or 7.4 using 50 mM phosphate, 100 mM sodium chloride and 0.01% surfactant P20. […] Bound albumin protein was then allowed to dissociate from the chip for 5 minutes with running buffer. Any remaining albumin was removed from the chip with a 60 second injection (2 cycles) of pH 8.0 Tris-HCl regeneration buffer (1 M Tris pH 8.0) at 25 μL/min flow rate. The binding responses recorded near the end of the association phase were plotted as a function of concentration. Equilibrium dissociation constants (KD), were derived from sensorgrams using the 1:1 binding model of BIAevaluation software 4.1.

Setting [1] is: Table 1, pH 6, shFcRn immobilized on the sensor chip, steady state fit, read-out: Kd, pH 6** Biacore.

Where two headings read alike, the source gives them in different places. Bridge positions count the residues as written; N and C are the ends. Peptide text beside a SMILES is read from it.

T1 sequence (P55899 24-297 limits assumed): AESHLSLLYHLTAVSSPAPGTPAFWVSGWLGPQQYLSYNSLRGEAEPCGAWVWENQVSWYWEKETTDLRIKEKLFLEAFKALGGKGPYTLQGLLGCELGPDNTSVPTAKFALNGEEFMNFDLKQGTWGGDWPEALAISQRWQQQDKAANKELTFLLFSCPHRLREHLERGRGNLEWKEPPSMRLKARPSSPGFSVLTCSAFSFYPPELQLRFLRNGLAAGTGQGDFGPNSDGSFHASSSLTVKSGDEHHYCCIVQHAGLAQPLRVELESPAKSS
T1 sequence (P61769 21-119 partner): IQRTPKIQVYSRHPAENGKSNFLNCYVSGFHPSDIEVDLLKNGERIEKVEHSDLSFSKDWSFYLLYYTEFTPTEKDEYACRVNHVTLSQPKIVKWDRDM

With `CSCC[C@@H]1NC(=O)[C@H](CCC(=O)O)NC(=O)[C@H](CCC(=O)O)NC(=O)[C@H](CC(=O)O)NC(=O)[C@H](Cc2c[nH]c3ccccc23)NC(=O)[C@H](Cc2c[nH]c3ccccc23)NC(=O)[C@@H](NC(=O)[C@H](CCCCN)NC(=O)[C@H](CCSC)NC(=O)[C@@H](NC(C)=O)C(C)C)CSSC[C@@H](C(=O)N[C@@H](CCCNC(=N)N)C(=O)N[C@@H](Cc2ccc(O)cc2)C(=O)N[C@@H](Cc2ccccc2)C(N)=O)NC(=O)[C@H](CC(C)C)NC1=O` [SYN1539] (Ac-VMKCWWDEEMLCRYF-NH2; disulfide 4-12 (inferred)), the “Kd Ratio 7.4/6.0” value (Table 2) came out at 83. Moreover, the Kd (Table 2, pH 7.4, data only 100 uM, therefore Kd may be higher, read-out: Kd, pH 7.4 Biacore) is 8.6 µM.

Take `CSCC[C@@H]1NC(=O)[C@H](CCC(=O)O)NC(=O)[C@H](CCC(=O)O)NC(=O)[C@H](CC(=O)O)NC(=O)[C@H](Cc2c[nH]c3ccccc23)NC(=O)[C@H](Cc2c[nH]c3ccccc23)NC(=O)[C@@H](NC(=O)[C@H](CCCCN)NC(=O)[C@H](CCSC)NC(=O)[C@@H](NC(C)=O)C(C)C)CSSC[C@@H](C(=O)N[C@@H](CCCNC(=N)N)C(=O)N[C@@H](C)C(=O)N[C@H](C(N)=O)C(C)C)NC(=O)[C@H](CC(C)C)NC1=O` [SYN1540 A] (Ac-VMKCWWDEEMLCRAV-NH2; disulfide 4-12): for the setting “Table 2”, the “Kd Ratio 7.4/6.0” value is 80.

With `CC(=O)N[C@@H](CCCNC(=N)N)C(=O)N[C@@H](Cc1ccc(O)cc1)C(=O)N[C@@H](Cc1ccccc1)C(=O)N[C@H]1CSSC[C@@H](C(=O)N[C@@H](CCC(=O)O)C(=O)N[C@@H](CCC(=O)O)C(=O)N[C@@H](C)C(N)=O)NC(=O)[C@H](Cc2c[nH]c3ccccc23)NC(=O)CNC(=O)[C@H](Cc2c[nH]cn2)NC(=O)[C@H](CCCCN)NC(=O)[C@H](Cc2c[nH]c3ccccc23)NC(=O)[C@H](CCCCN)NC(=O)[C@H]([C@@H](C)O)NC1=O` [SYN1554] (Ac-RYFCTKWKHGWCEEA-NH2; disulfide 4-12), the Kd under setting [1] was > 100 µM. On the same count and under the same terms, under `CC(=O)N[C@@H](CCCNC(=N)N)C(=O)N[C@@H](Cc1ccc(O)cc1)C(=O)N[C@@H](Cc1ccccc1)C(=O)N[C@H]1CSSC[C@@H](C(=O)N[C@@H](CCC(=O)O)C(=O)N[C@@H](CCC(=O)O)C(=O)N[C@H](C(N)=O)C(C)C)NC(=O)[C@H](Cc2c[nH]c3ccccc23)NC(=O)CNC(=O)[C@H](Cc2c[nH]cn2)NC(=O)[C@H](CCCCN)NC(=O)[C@H](Cc2c[nH]c3ccccc23)NC(=O)[C@H](CCCCN)NC(=O)[C@H](C)NC1=O` [SYN1545] (Ac-RYFCAKWKHGWCEEV-NH2; disulfide 4-12 (inferred)) stands 9.3 µM. Turning to `CC(=O)N[C@@H](CCCNC(=N)N)C(=O)N[C@@H](Cc1ccc(O)cc1)C(=O)N[C@@H](Cc1ccccc1)C(=O)N[C@@H]1C(=O)N[C@@H]([C@@H](C)O)C(=O)N[C@@H](CCCCN)C(=O)N[C@@H](Cc2c[nH]c3ccccc23)C(=O)N[C@@H](CCCCN)C(=O)N[C@@H](Cc2c[nH]cn2)C(=O)NCC(=O)N[C@@H](Cc2c[nH]c3ccccc23)C(=O)N[C@H](C(=O)N[C@@H](CCC(=O)O)C(=O)N[C@@H](CCC(=O)O)C(=O)N[C@H](C(N)=O)C(C)C)C(C)(C)SSC1(C)C` [SYN1557, Ac-RYF-Pen-TKWKHGW-Pen-EEV-CONH2], the dissociation constant Kd under setting [1] is > 100 µM.

In the case of `CSCC[C@H](NC(=O)[C@H](C)NC(C)=O)C(=O)N[C@H](C(=O)N[C@H]1CSSC[C@@H](C(=O)N[C@@H](CCC(=O)O)C(=O)N[C@@H](Cc2ccc(O)cc2)C(=O)N[C@H](C(N)=O)C(C)C)NC(=O)[C@H](CO)NC(=O)[C@H](Cc2ccccc2)NC(=O)CNC(=O)[C@H](CC(=O)O)NC(=O)[C@H](CC(=O)O)NC(=O)[C@H](Cc2c[nH]c3ccccc23)NC(=O)[C@H](CCCCN)NC1=O)[C@@H](C)O` [SYN1144] (Ac-AMTCKWDDGFSCEYV-NH2; disulfide 4-12 (inferred)), the “Kd Ratio 7.4/6.0” value (Table 2) was 23.3.
